Measurements reported in PubChem BioAssay (NCI).
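Five compound concentrations were applied to cells in 96-well plates for 48 hours; endpoints were derived by simple linear interpolation of the resulting dose-response curve. Abbreviation: GI50, concentration required for 50% inhibition of growth. TGI is the concentration that stops growth completely.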

Assays:
Assay in all cases: NCI-60 cell line screen, 48 h
HCC-2998 colon = tested on: HCC-2998 colon
HCT-15 colon = tested on: HCT-15 colon
KM12 colon = tested on: KM12 colon
OVCAR-3 ovarian = tested on: OVCAR-3 ovarian
SK-MEL-5 melanoma = tested on: SK-MEL-5 melanoma
SW-620 colon = tested on: SW-620 colon
UACC-62 melanoma = tested on: UACC-62 melanoma
BT-549 breast = tested on: BT-549 breast
HS 578T breast = tested on: HS 578T breast
NCI/ADR-RES ovarian = tested on: NCI/ADR-RES ovarian

Row | SMILES | TGI (HCC-2998 colon) | TGI (HCT-15 colon) | TGI (KM12 colon) | TGI (OVCAR-3 ovarian) | TGI (SK-MEL-5 melanoma) | TGI (SW-620 colon) | TGI (UACC-62 melanoma) | GI50 (BT-549 breast) | TGI (BT-549 breast) | GI50 (HCC-2998 colon) | GI50 (HCT-15 colon) | GI50 (HS 578T breast) | TGI (HS 578T breast) | GI50 (KM12 colon) | GI50 (NCI/ADR-RES ovarian) | TGI (NCI/ADR-RES ovarian) | GI50 (OVCAR-3 ovarian) | GI50 (SK-MEL-5 melanoma) | GI50 (SW-620 colon) | GI50 (UACC-62 melanoma)
1 | Nc1c(-c2cn(Cc3ccccc3)c3ccccc23)[n+]([O-])c2ccccc2[n+]1[O-] | > 100 µM | > 100 µM | > 100 µM | 68.4 µM | 51.3 µM | > 100 µM | > 100 µM | – | – | – | – | – | – | – | – | – | – | – | – | –
2 | CCN(CC)CCNc1ccc(C)c2sc3cc(Cl)ccc3c(=O)c12 | 3.58 µM | 3.12 µM | 3.26 µM | 3.23 µM | 3.07 µM | 3.6 µM | 3.54 µM | 2.36 µM | 6.95 µM | 1750 nM | 1.5 µM | 1.65 µM | 3.9 µM | 1.75 µM | 1.62 µM | 3.23 µM | 1.73 µM | 1.68 µM | 1.86 µM | 1870 nM
3 | C=CC(=O)NCCSCCCOC1(C(=O)O)CC(O)C(NC(C)=O)C(C(O)C(O)CO)O1 (configuration not stated) | > 100 µM | > 100 µM | > 100 µM | > 100 µM | – | > 100 µM | > 100 µM | – | – | – | – | – | – | – | – | – | – | – | – | –
4 | Nc1cc(F)ccc1CC(=O)O | > 100 µM | > 100 µM | > 100 µM | – | > 100 µM | > 100 µM | > 100 µM | – | > 100 µM | – | – | – | > 100 µM | – | – | > 100 µM | – | – | – | –
5 | COc1ccc2c(c1)[n+]([O-])c(-c1ccc([N+](=O)[O-])cc1)c(N)[n+]2[O-] | – | – | > 100 µM | > 100 µM | > 100 µM | > 100 µM | – | – | – | – | – | – | – | – | – | – | – | – | – | –
6 | O=S(=O)([O-])c1ccc(N=Cc2ccccc2[O-])cc1.O=S(=O)([O-])c1ccc(N=Cc2ccccc2[O-])cc1.[O]=[U+2]=[O] | – | > 100 µM | – | > 100 µM | – | > 100 µM | > 100 µM | – | – | – | 31.3 µM | – | – | – | – | – | > 100 µM | – | > 100 µM | > 100000 nM
7 | Cc1cc([N+](=O)[O-])ccc1Sc1c2ccccc2nc2cc(Cl)ccc12 | > 100 µM | > 100 µM | 50.4 µM | > 100 µM | > 100 µM | 93.5 µM | > 100 µM | – | – | – | – | – | – | – | – | – | – | – | – | –
8 | COc1ccccc1NC(=O)C1=C(C)NC(C)=C(C(=O)Nc2ccccc2OC)C1C1=CC=COC1 | 50.2 µM | 15 µM | 49.6 µM | 9.5 µM | 41.9 µM | 22.1 µM | 15.5 µM | – | – | – | – | – | – | – | – | – | – | – | – | –
9 | CC(=O)Nc1ccc(/C=c2\sc3nnc(CCC(=O)Nc4ccccc4Cl)n3c2=O)cc1 | > 10 µM | > 100 µM | 46.4 µM | 47.4 µM | 68.2 µM | 87.5 µM | 56.2 µM | – | – | – | – | – | – | – | – | – | – | – | – | –
10 | COc1ccc(OC(C)=O)c2c1CCC=CC2=O | 32.9 µM | 30.1 µM | 12.6 µM | 29.3 µM | 28.9 µM | 28.8 µM | 26.2 µM | – | – | – | – | – | – | – | – | – | – | – | – | –
11 | C=C=C(C(=O)OC)S(=O)c1ccccc1[N+](=O)[O-] (configuration not stated) | > 100 µM | > 100 µM | > 100 µM | > 100 µM | > 100 µM | > 100 µM | > 100 µM | – | – | – | – | – | – | – | – | – | – | – | – | –
12 | COC(=O)C(Cc1nc2ccccc2[nH]c1=O)/C(=N\NC(C)(C)C)C(=O)Nc1c(C)cc(Br)cc1C (configuration not stated) | > 100 µM | 48.2 µM | > 100 µM | – | 55.3 µM | 80.1 µM | 44.9 µM | – | – | – | – | – | – | – | – | – | – | – | – | –
13 | COC(=O)C(=O)C(C(=O)C(=O)Nc1cccc(C(C)=O)c1)c1nc2ccc([N+](=O)[O-])cc2[nH]c1=O (configuration not stated) | > 100 µM | > 100 µM | > 100 µM | – | > 100 µM | > 100 µM | > 100 µM | – | – | – | – | – | – | – | – | – | – | – | – | –
14 | CN(C)c1ccc(/C=C/C(=O)[O-])cc1.CN(C)c1ccc(/C=C/C(=O)[O-])cc1.[Cu+2] | > 100 µM | > 100 µM | > 100 µM | > 100 µM | 93.5 µM | > 100 µM | > 62.9 µM | – | – | – | – | – | – | – | – | – | – | – | – | –
15 | O=C(/C=C/c1ccco1)c1cc(F)c(Cl)cc1Cl | – | 55.8 µM | 56.4 µM | 60.4 µM | 32.5 µM | 36.3 µM | 34.6 µM | – | – | – | 21.5 µM | 13.7 µM | 39.6 µM | 19.7 µM | – | – | 21.4 µM | 17 µM | 13.1 µM | 16500 nM
16 | O=C1CC[C@H](N2C(=O)c3cccc4c(Cc5ccc(CN6CCOCC6)cc5)ccc2c34)C(=O)N1 | > 100 µM | > 100 µM | > 100 µM | > 100 µM | 26.4 µM | > 100 µM | – | 17.3 µM | > 100 µM | > 100000 nM | 41.8 µM | 46.8 µM | > 100 µM | 79 µM | 42 µM | > 100 µM | 65.6 µM | 7.32 µM | > 100 µM | –
17 | O=C1CC(c2c(-c3ccccc3)[nH]c3ccccc23)C(=O)N1 (configuration not stated) | > 100 µM | > 100 µM | > 100 µM | > 100 µM | > 100 µM | > 100 µM | > 100 µM | – | – | – | – | – | – | – | – | – | – | – | – | –
18 | COc1cccc2ccc(C(=O)c3ccccc3)nc12 | > 100 µM | > 100 µM | > 100 µM | > 100 µM | > 100 µM | > 100 µM | > 100 µM | – | – | – | – | – | – | – | – | – | – | – | – | –
19 | CC1=Nc2ccccc2NC(c2ccoc2)C1 (configuration not stated) | > 100 µM | > 100 µM | > 100 µM | > 100 µM | > 100 µM | > 100 µM | > 100 µM | – | – | – | – | – | – | – | – | – | – | – | – | –
20 | O=C1/C(=N\O)c2ccccc2S1(=O)=O | > 100 µM | > 100 µM | > 100 µM | – | > 100 µM | > 100 µM | > 100 µM | – | – | – | – | – | – | – | – | – | – | – | – | –
21 | CCN(CC)CC(C)(C)C(=O)/C=C/c1cccc(/C=C/C(=O)C(C)(C)CN(CC)CC)c1 | 2.51 µM | 2.37 µM | 1.77 µM | 2.31 µM | 2.97 µM | 0.419 µM | 3.16 µM | – | – | – | – | – | – | – | – | – | – | – | – | –
22 | c1ccc([CH2][Sn]([CH2]c2ccccc2)([O]c2cccc3cccnc23)[O]c2cccc3cccnc23)cc1 | 0.418 µM | 1.37 µM | 0.515 µM | 0.949 µM | 0.415 µM | 0.376 µM | 0.447 µM | – | – | 201 nM | 0.394 µM | – | – | 0.223 µM | – | – | 0.3 µM | 0.213 µM | 0.188 µM | 178 nM
23 | C#CCNC(=O)N(CC#C)N=O | > 100 µM | > 100 µM | > 100 µM | > 100 µM | > 100 µM | > 100 µM | > 100 µM | – | – | – | – | – | – | – | – | – | – | – | – | –
24 | COc1ccccc1C1C(Cl)C(=O)N1n1cnc2ccccc2c1=O (configuration not stated) | > 100 µM | > 100 µM | > 100 µM | > 100 µM | > 100 µM | > 100 µM | > 100 µM | – | – | – | – | – | – | – | – | – | – | – | – | –
